Laboratory results reported in US9605004B2, “Chemical compounds” (SYNGENTA LIMITED, priority 2013, dated 2017).

Columns and labels:
[1] = tested on: a variety of test species; assay: Pre-emergence herbicidal activity (Example 8a, Table 2); format: in vivo; set-up: key: 0 = no damage to plant, 5 = total damage to plant; settings: application pre-emergence, rate 1000 g/ha, evaluated after 13 days
Description: Seeds of a variety of test species were sown in standard soil in pots. After cultivation for one day (pre-emergence) under controlled conditions in a glasshouse (at 24/16° C., day/night; 14 hours light; 65% humidity), the plants were sprayed with an aqueous spray solution derived from the formulation of the technical active ingredient in acetone/water (50:50) solution containing 0.5% Tween 20 (polyoxyethelyene sorbitan monolaurate, CAS RN 9005-64-5). The test plants were then grown in a glasshouse under controlled conditions (at 24/16° C., day/night; 14 hours light; 65% humidity) and watered twice daily. After 13 days, the test was evaluated (5=total damage to plant; 0=no damage to plant).

[2] = tested on: a variety of test species; assay: Post-emergence herbicidal activity (Example 8b, Table 3); format: in vivo; settings: application post-emergence, rate 1000 g/ha, evaluated after 13 days, scale 0-5; for Herbicidal damage score, ABUTH: Abutilon theophrasti; for Herbicidal damage score, ALOMY: Alopecurus myosuroides; for Herbicidal damage score, AMARE: Amaranthus retroflexus; for Herbicidal damage score, ECHCG: Echinochloa crus-galli; for Herbicidal damage score, SETFA: Setaria faberi; for Herbicidal damage score, ZEAMX: Zea mays
Description: Seeds of a variety of test species were sown in standard soil in pots. After 8 days cultivation (post-emergence) under controlled conditions in a glasshouse (at 24/16° C., day/night; 14 hours light; 65% humidity), the plants were sprayed with an aqueous spray solution derived from the formulation of the technical active ingredient in acetone/water (50:50) solution containing 0.5% Tween 20 (polyoxyethelyene sorbitan monolaurate, CAS RN 9005-64-5). The test plants were then grown in a glasshouse under controlled conditions (at 24/16° C., day/night; 14 hours light; 65% humidity) and watered twice daily. After 13 days, the test was evaluated (5=total damage to plant; 0=no damage to plant).

SMILES: COC1=C(C)C(O)N(c2cc(C(C)(C)C)n(C)n2)C1=O (stereo not drawn) [Compound H1, 1-(5-tert-butyl-1-methyl-pyrazol-3-yl)-2-hydroxy-4-methoxy-3-methyl-2H-pyrrol-5-one]
- Pre-emergence herbicidal activity, damage score ABUTH [1]: 5
- Pre-emergence herbicidal activity, damage score ALOMY [1]: 4
- Pre-emergence herbicidal activity, damage score AMARE [1]: 5
- Pre-emergence herbicidal activity, damage score ECHCG [1]: 5
- Pre-emergence herbicidal activity, damage score SETFA [1]: 5
- Pre-emergence herbicidal activity, damage score ZEAMX [1]: 4
- Herbicidal damage score, ABUTH [2]: 5
- Herbicidal damage score, ALOMY [2]: 5
- Herbicidal damage score, AMARE [2]: 5
- Herbicidal damage score, ECHCG [2]: 5
- Herbicidal damage score, SETFA [2]: 5
- Herbicidal damage score, ZEAMX [2]: 4

SMILES: CC1=C(Br)C(=O)N(c2cc3n(n2)CCSC3(C)C)C1O (stereo not drawn) [Compound M3]
- Pre-emergence herbicidal activity, damage score ABUTH [1]: 4
- Pre-emergence herbicidal activity, damage score ALOMY [1]: 3
- Pre-emergence herbicidal activity, damage score AMARE [1]: 5
- Pre-emergence herbicidal activity, damage score ECHCG [1]: 3
- Pre-emergence herbicidal activity, damage score SETFA [1]: 2
- Pre-emergence herbicidal activity, damage score ZEAMX [1]: 0
- Herbicidal damage score, ABUTH [2]: 5
- Herbicidal damage score, ALOMY [2]: 5
- Herbicidal damage score, AMARE [2]: 5
- Herbicidal damage score, ECHCG [2]: 5
- Herbicidal damage score, SETFA [2]: 5
- Herbicidal damage score, ZEAMX [2]: 1

SMILES: CC1=C(Cl)C(=O)N(c2cc(Cc3ccccc3)n(C)n2)C1O (stereo not drawn) [Compound B24]
- Pre-emergence herbicidal activity, damage score ABUTH [1]: 3
- Pre-emergence herbicidal activity, damage score ALOMY [1]: 3
- Pre-emergence herbicidal activity, damage score AMARE [1]: 3
- Pre-emergence herbicidal activity, damage score ECHCG [1]: 3
- Pre-emergence herbicidal activity, damage score SETFA [1]: 3
- Pre-emergence herbicidal activity, damage score ZEAMX [1]: 0
- Herbicidal damage score, ABUTH [2]: 5
- Herbicidal damage score, ALOMY [2]: 4
- Herbicidal damage score, AMARE [2]: 5
- Herbicidal damage score, ECHCG [2]: 5
- Herbicidal damage score, SETFA [2]: 5
- Herbicidal damage score, ZEAMX [2]: 1

SMILES: CC1=C(Cl)C(=O)N(c2cc(C(F)(F)F)n(C(C)C)n2)C1O (stereo not drawn) [Compound C4]
- Pre-emergence herbicidal activity, damage score ABUTH [1]: 4
- Pre-emergence herbicidal activity, damage score ALOMY [1]: 3
- Pre-emergence herbicidal activity, damage score AMARE [1]: 4
- Pre-emergence herbicidal activity, damage score ECHCG [1]: 4
- Pre-emergence herbicidal activity, damage score SETFA [1]: 4
- Pre-emergence herbicidal activity, damage score ZEAMX [1]: 3
- Herbicidal damage score, ABUTH [2]: 4
- Herbicidal damage score, ALOMY [2]: 4
- Herbicidal damage score, AMARE [2]: 4
- Herbicidal damage score, ECHCG [2]: 5
- Herbicidal damage score, SETFA [2]: 4
- Herbicidal damage score, ZEAMX [2]: 2

SMILES: CC1=C(Cl)C(=O)N(c2cc(C(C)c3ccccc3)n(C)n2)C1O (mixture of isomers) [Compound B41]
- Pre-emergence herbicidal activity, damage score ABUTH [1]: 4
- Pre-emergence herbicidal activity, damage score ALOMY [1]: 3
- Pre-emergence herbicidal activity, damage score AMARE [1]: 2
- Pre-emergence herbicidal activity, damage score ECHCG [1]: 4
- Pre-emergence herbicidal activity, damage score SETFA [1]: 4
- Pre-emergence herbicidal activity, damage score ZEAMX [1]: 2
- Herbicidal damage score, ABUTH [2]: 5
- Herbicidal damage score, ALOMY [2]: 5
- Herbicidal damage score, AMARE [2]: 4
- Herbicidal damage score, ECHCG [2]: 5
- Herbicidal damage score, SETFA [2]: 5
- Herbicidal damage score, ZEAMX [2]: 2

SMILES: CC1=C(Cl)C(=O)N(c2cc(C(F)(F)C(F)(F)F)n(C)n2)C1O (stereo not drawn) [Compound B13]
- Pre-emergence herbicidal activity, damage score ABUTH [1]: 5
- Pre-emergence herbicidal activity, damage score ALOMY [1]: 4
- Pre-emergence herbicidal activity, damage score AMARE [1]: 5
- Pre-emergence herbicidal activity, damage score ECHCG [1]: 5
- Pre-emergence herbicidal activity, damage score SETFA [1]: 5
- Pre-emergence herbicidal activity, damage score ZEAMX [1]: 2
- Herbicidal damage score, ABUTH [2]: 5
- Herbicidal damage score, ALOMY [2]: 5
- Herbicidal damage score, AMARE [2]: 5
- Herbicidal damage score, ECHCG [2]: 5
- Herbicidal damage score, SETFA [2]: 5
- Herbicidal damage score, ZEAMX [2]: 3

SMILES: CC1=C(Cl)C(=O)N(c2cc(C)n(C(F)(F)F)n2)C1O (stereo not drawn) [Compound C13]
- Pre-emergence herbicidal activity, damage score ABUTH [1]: 3
- Pre-emergence herbicidal activity, damage score ALOMY [1]: 2
- Pre-emergence herbicidal activity, damage score AMARE [1]: 2
- Pre-emergence herbicidal activity, damage score ECHCG [1]: 2
- Pre-emergence herbicidal activity, damage score SETFA [1]: 2
- Pre-emergence herbicidal activity, damage score ZEAMX [1]: 0
- Herbicidal damage score, ABUTH [2]: 1
- Herbicidal damage score, ALOMY [2]: 1
- Herbicidal damage score, AMARE [2]: 1
- Herbicidal damage score, ECHCG [2]: 1
- Herbicidal damage score, SETFA [2]: 2
- Herbicidal damage score, ZEAMX [2]: 1

SMILES: CCC(C)(CC)c1cc(N2C(=O)C(Cl)=C(C)C2O)n[nH]1 (stereo not drawn) [Compound A7]
- Pre-emergence herbicidal activity, damage score ABUTH [1]: 5
- Pre-emergence herbicidal activity, damage score ALOMY [1]: 3
- Pre-emergence herbicidal activity, damage score AMARE [1]: 5
- Pre-emergence herbicidal activity, damage score ECHCG [1]: 5
- Pre-emergence herbicidal activity, damage score SETFA [1]: 5
- Pre-emergence herbicidal activity, damage score ZEAMX [1]: 3
- Herbicidal damage score, ABUTH [2]: 5
- Herbicidal damage score, ALOMY [2]: 5
- Herbicidal damage score, AMARE [2]: 5
- Herbicidal damage score, ECHCG [2]: 5
- Herbicidal damage score, SETFA [2]: 5
- Herbicidal damage score, ZEAMX [2]: 5

SMILES: CC1=C(Cl)C(=O)N(c2cc3n(n2)CCCC3(C)C)C1O (stereo not drawn) [Compound G9]
- Pre-emergence herbicidal activity, damage score ABUTH [1]: 5
- Pre-emergence herbicidal activity, damage score ALOMY [1]: 4
- Pre-emergence herbicidal activity, damage score AMARE [1]: 5
- Pre-emergence herbicidal activity, damage score ECHCG [1]: 5
- Pre-emergence herbicidal activity, damage score SETFA [1]: 5
- Pre-emergence herbicidal activity, damage score ZEAMX [1]: 3
- Herbicidal damage score, ABUTH [2]: 5
- Herbicidal damage score, ALOMY [2]: 5
- Herbicidal damage score, AMARE [2]: 5
- Herbicidal damage score, ECHCG [2]: 5
- Herbicidal damage score, SETFA [2]: 5
- Herbicidal damage score, ZEAMX [2]: 5
